Where a SMILES comes first, the peptide text is derived from it. The star is where a group is joined. Succinyl(4-O-cholesteryl) = CC(C)CCC[C@@H](C)[C@H]1CC[C@H]2[C@@H]3CC=C4C[C@@H](OC(=O)CCC(=O)*)CC[C@]4(C)[C@H]3CC[C@]12C

For this assay, the system named is RSV A long virus strain. It counts as cell-based. Conditions: RSV A long virus strain, HEp-2 cells, plaque reduction, 1 day; read-out: IC50. In outline: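 HEp-2 cells (30000/well) infected with 100 PFU virus premixed 1 h with compound (8 concentrations, duplicate); after 2 h adsorption, cultured 1 day at 37 °C under 0.8% CMC overlay with compound. Plaques immunostained (RSV antibody, TrueBlue) and counted; IC50 and CC50 by non-linear fitting of % inhibition versus virus and cell controls.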
In general, IC50 refers to the concentration needed to halve the response being measured. `CC[C@H](C)[C@H](NC(=O)[C@H](CO)NC(=O)[C@H](C)NC(=O)[C@H](CC(=O)O)NC(=O)[C@H](Cc1ccccc1)NC(C)=O)C(=O)N[C@@H](CCC(=O)O)C(=O)N[C@@H](CCC(=O)O)C(=O)N[C@H](C(=O)N[C@@H](CC(N)=O)C(=O)N[C@@H](CCCNC(=N)N)C(=O)N[C@@H](CCCNC(=N)N)C(=O)N[C@H](C(=O)N[C@@H](CCC(=O)O)C(=O)N[C@@H](CCC(=O)O)C(=O)N[C@@H](CO)C(=O)N[C@@H](CC(C)C)C(=O)N[C@@H](CCCNC(=N)N)C(=O)N[C@@H](CCCNC(=N)N)C(=O)N[C@H](C(=O)N[C@@H](CCC(=O)O)C(=O)N[C@@H](CCC(=O)O)C(=O)N[C@@H](CO)C(=O)N[C@@H](CC(=O)O)C(=O)N[C@@H](CCCNC(=N)N)C(=O)N[C@@H](CCCNC(=N)N)C(=O)N[C@@H](CC(C)C)C(=O)N[C@@H](CCC(=O)O)C(=O)N[C@@H](CCC(=O)O)C(=O)N[C@H](C(=O)N[C@@H](CC(N)=O)C(=O)N[C@@H](C)C(=O)N[C@@H](CCC(=O)O)C(=O)N[C@@H](C)C(=O)N[C@@H](C)C(=O)N[C@@H](C)C(=O)N[C@@H](CCCCN)C(=O)N[C@@H](CCCCNC(=O)CCC(=O)O[C@H]1CC[C@@]2(C)C(=CC[C@H]3[C@@H]4CC[C@H]([C@H](C)CCCC(C)C)[C@@]4(C)CC[C@@H]32)C1)C(N)=O)C(C)C)[C@@H](C)CC)[C@@H](C)CC)C(C)C` [Compound 42] (Ac-FDASIEEVNRRIEESLRRIEESDRRLEEVNAEAAAKK(Succinyl(4-O-cholesteryl))-NH2): the IC50 came to 11.8 nM. With `CC[C@H](C)[C@H](NC(=O)[C@H](CCCCN)NC(=O)[C@H](CCCCN)NC(=O)[C@H](CC(C)C)NC(=O)[C@H](CO)NC(=O)[C@H](CCC(=O)O)NC(=O)[C@H](CCC(=O)O)NC(=O)[C@@H](NC(=O)[C@H](CCCCN)NC(=O)[C@H](CCCCN)NC(=O)[C@H](CC(N)=O)NC(=O)[C@@H](NC(=O)[C@H](CCC(=O)O)NC(=O)[C@H](CCC(=O)O)NC(=O)[C@@H](NC(=O)[C@H](CCCCN)NC(=O)[C@H](CCCCN)NC(=O)[C@H](CC(=O)O)NC(=O)[C@H](Cc1ccccc1)NC(=O)[C@H](CCC(=O)O)NC(=O)[C@H](CC(=O)O)NC(=O)[C@H](Cc1c[nH]c2ccccc12)NC(C)=O)[C@@H](C)CC)C(C)C)[C@@H](C)CC)C(=O)N[C@@H](CCC(=O)O)C(=O)N[C@@H](CCC(=O)O)C(=O)N[C@@H](CO)C(=O)N[C@@H](CC(=O)O)C(=O)N[C@@H](CCCCN)C(=O)N[C@@H](CCCCN)C(=O)N[C@@H](CC(C)C)C(=O)N[C@@H](Cc1c[nH]cn1)C(=O)N[C@@H](CC(N)=O)C(=O)N[C@H](C(=O)N[C@@H](CCC(=O)O)C(=O)N[C@@H](C)C(=O)N[C@@H](C)C(=O)N[C@@H](C)C(=O)N[C@@H](CCCCN)C(=O)N[C@@H](CCCCNC(=O)CCC(=O)O[C@H]1CC[C@@]2(C)C(=CC[C@H]3[C@@H]4CC[C@H]([C@H](C)CCCC(C)C)[C@@]4(C)CC[C@@H]32)C1)C(N)=O)C(C)C` [Compound 44] (Ac-WDEFDKKIEEVNKKIEESLKKIEESDKKLHNVEAAAKK(Succinyl(4-O-cholesteryl))-NH2), the IC50 was found to be 12.4 nM. Regarding “Ac-SLEQVNEKINQSLAFIRKSDEINQSDEEVNKSDELLEAAAKK-NH2 [Compound 50]”, the IC50 was determined as 15.1 nM. Next, `CC[C@H](C)[C@H](NC(=O)[C@H](CCCCN)NC(=O)[C@H](CCCCN)NC(=O)[C@H](CC(C)C)NC(=O)[C@H](CO)NC(=O)[C@H](CCC(=O)O)NC(=O)[C@H](CCC(=O)O)NC(=O)[C@@H](NC(=O)[C@H](CCCCN)NC(=O)[C@H](CCCCN)NC(=O)[C@H](CC(N)=O)NC(=O)[C@@H](NC(=O)[C@H](CCC(=O)O)NC(=O)[C@H](CCC(=O)O)NC(=O)[C@@H](NC(=O)[C@H](CCCCN)NC(=O)[C@H](CCCCN)NC(=O)[C@H](CC(=O)O)NC(=O)[C@H](Cc1ccccc1)NC(=O)[C@H](CCC(=O)O)NC(=O)[C@H](CC(=O)O)NC(=O)[C@H](Cc1c[nH]c2ccccc12)NC(C)=O)[C@@H](C)CC)C(C)C)[C@@H](C)CC)C(=O)N[C@@H](CCC(=O)O)C(=O)N[C@@H](CCC(=O)O)C(=O)N[C@@H](CO)C(=O)N[C@@H](CC(=O)O)C(=O)N[C@@H](CCCCN)C(=O)N[C@@H](CCCCN)C(=O)N[C@@H](CC(C)C)C(=O)N[C@@H](CCC(=O)O)C(=O)N[C@@H](CCC(=O)O)C(=O)N[C@H](C(=O)N[C@@H](CC(N)=O)C(=O)N[C@@H](CCC(=O)O)C(=O)N[C@@H](C)C(=O)N[C@@H](C)C(=O)N[C@@H](C)C(=O)N[C@@H](CCCCN)C(=O)N[C@@H](CCCCNC(=O)CCC(=O)O[C@H]1CC[C@@]2(C)C(=CC[C@H]3[C@@H]4CC[C@H]([C@H](C)CCCC(C)C)[C@@]4(C)CC[C@@H]32)C1)C(N)=O)C(C)C` [Compound 41] (Ac-WDEFDKKIEEVNKKIEESLKKIEESDKKLEEVNEAAAKK(Succinyl(4-O-cholesteryl))-NH2): 14.8 nM. For `CC[C@H](C)[C@H](NC(=O)[C@H](CCCCN)NC(=O)[C@H](CCCCN)NC(=O)[C@H](CC(C)C)NC(=O)[C@H](CO)NC(=O)[C@H](CCC(=O)O)NC(=O)[C@H](CCC(=O)O)NC(=O)[C@@H](NC(=O)[C@H](CCCCN)NC(=O)[C@H](CCCCN)NC(=O)[C@H](CC(N)=O)NC(=O)[C@@H](NC(=O)[C@H](CCC(=O)O)NC(=O)[C@H](CCC(=O)O)NC(=O)[C@@H](NC(=O)[C@H](CCCCN)NC(=O)[C@H](CCCCN)NC(=O)[C@H](CC(=O)O)NC(=O)[C@H](Cc1ccccc1)NC(=O)[C@H](CCC(=O)O)NC(=O)[C@H](CC(=O)O)NC(=O)[C@H](CO)NC(C)=O)[C@@H](C)CC)C(C)C)[C@@H](C)CC)C(=O)N[C@@H](CCC(=O)O)C(=O)N[C@@H](CCC(=O)O)C(=O)N[C@@H](CO)C(=O)N[C@@H](CC(=O)O)C(=O)N[C@@H](CCCCN)C(=O)N[C@@H](CCCCN)C(=O)N[C@@H](CC(C)C)C(=O)N[C@@H](CCC(=O)O)C(=O)N[C@@H](C)C(=O)N[C@@H](C)C(=O)N[C@@H](C)C(=O)N[C@@H](CCCCN)C(=O)N[C@@H](CCCCNC(=O)CCC(=O)O[C@H]1CC[C@@]2(C)C(=CC[C@H]3[C@@H]4CC[C@H]([C@H](C)CCCC(C)C)[C@@]4(C)CC[C@@H]32)C1)C(N)=O` [Compound 16] (Ac-SDEFDKKIEEVNKKIEESLKKIEESDKKLEAAAKK(Succinyl(4-O-cholesteryl))-NH2), the IC50 was found to be 10.3 nM. For `CC[C@H](C)[C@H](NC(=O)[C@H](CCCCN)NC(=O)[C@H](CCC(=O)O)NC(=O)[C@H](CC(C)C)NC(=O)[C@H](CO)NC(=O)[C@H](CCC(N)=O)NC(=O)[C@H](CC(N)=O)NC(=O)[C@@H](NC(=O)[C@H](CCCCN)NC(=O)[C@H](CCC(=O)O)NC(=O)[C@H](CC(N)=O)NC(=O)[C@@H](NC(=O)[C@H](CCC(N)=O)NC(=O)[C@H](CO)NC(=O)[C@H](C)NC(=O)[C@H](CC(=O)O)NC(=O)[C@H](Cc1ccccc1)NC(=O)[C@@H](NC(=O)[C@H](CC(C)C)NC(=O)[C@H](CCC(=O)O)NC(=O)[C@H](CC(=O)O)NC(=O)[C@H](Cc1ccc(O)cc1)NC(C)=O)C(C)C)C(C)C)[C@@H](C)CC)C(=O)N[C@@H](CCCNC(=N)N)C(=O)N[C@@H](CCCCN)C(=O)N[C@@H](CO)C(=O)N[C@@H](CC(=O)O)C(=O)N[C@@H](CCC(=O)O)C(=O)N[C@@H](CC(C)C)C(=O)N[C@@H](CC(C)C)C(=O)N[C@@H](Cc1c[nH]cn1)C(=O)N[C@@H](CC(N)=O)C(=O)N[C@H](C(=O)N[C@@H](CCC(=O)O)C(=O)N[C@@H](C)C(=O)N[C@@H](C)C(=O)N[C@@H](C)C(=O)N[C@@H](CCCCN)C(=O)N[C@@H](CCCCNC(=O)CCC(=O)O[C@H]1CC[C@@]2(C)C(=CC[C@H]3[C@@H]4CC[C@H]([C@H](C)CCCC(C)C)[C@@]4(C)CC[C@@H]32)C1)C(N)=O)C(C)C` [Compound 30] (Ac-YDELVFDASQVNEKINQSLEKIRKSDELLHNVEAAAKK(Succinyl(4-O-cholesteryl))-NH2), the IC50 is 14.9 nM.

Source of the values: patent US20260250325A1, “Antiviral Polypeptide Membrane Fusion Inhibitor, and Preparation Method and Application Thereof” (priority 2025, published 2026).
